This note sets out measurements from publication PMC11157491, “Novel Alaninamide Derivatives with Drug-like Potential for Development as Antiseizure and Antinociceptive Therapies—In Vitro and In Vivo Characterization” (ACS Chemical Neuroscience, 2024).

For data set [1], the system named is mice. Kind of data set: 6 Hz (32 mA) psychomotor seizure model. As to conditions: Mus musculus, ip; for responders at 100 mg/kg: 100 mg/kg i.p., 0.5 h; for ED50: mice, pretreatment 0.5 h. Format: in vivo. An excerpt:
(§1) Identification and profiling of new ASM candidate compounds are still largely based on predictive animal models of seizures/epilepsy, while a range of in silico and in vitro approaches (i.e., molecular modeling or high throughput screening, etc.) are increasingly used in the early stages of ASM discovery.[31] The Epilepsy Therapy Screening Program (ETSP) of the National Institute of Neurological Disorders and Stroke (NIH, Bethesda, MD) has enabled the discovery of several approved ASMs by focusing on the in vivo testing of compounds synthesized by both academic laboratories and industry.[32] The ETSP provides a broad panel of seizure tests (ca. 30 rodent models), but a subset of them is used for the initial screening of new compounds with potential antiseizure activity. The routinely used seizure models include: (i) the MES test, which is an experimental model of tonic–clonic seizures, (ii) the 6 Hz model (32 mA) of focal seizures, and (iii) the scPTZ model of generalized absence or myoclonic seizures.[33],[34] Consequently, in the current studies, all final compounds 21–36 and 45–48 were initially studied in the MES and the 6 Hz (32 mA) seizure models after intraperitoneal (i.p.) administration at a screening dose of 100 mg/kg in mice at a time point of 0.5 h (the screening group consisted of four mice, and the results obtained are summarized in Table S1).
(§2) These parameters were then used to calculate the protective indexes (PIs, PI = TD50/ED50), which describe the therapeutics window of potential drug candidates. The ED50, TD50, and PI values for the tested compounds together with data of their chemical prototypes KA-11 and KJ-5 and reference ASMs are summarized in Table 2.
(§3) The adult male Albino Swiss mice weighed between 22 and 26 g were used in the in vivo studies. They were housed under standardized housing conditions in colony cages and had free access to food as well as tap water. The animals were left to adapt under laboratory conditions for 7 days. All procedures involving animals and their care were performed in accordance with the current European Community and Polish legislation on animal experimentation.
(§4) In the initial screening studies, four mice per group were randomly assigned to each experimental group (each mouse was used only once). To evaluate the ED50 or TD50 values, four groups consisting of eight animals were injected with various doses of tested compounds. The protective indexes (PIs) for the compounds investigated and reference ASMs were calculated by dividing the TD50 value, as determined in the chimney test, by the respective ED50 value, as determined in the MES, scPTZ, or 6 Hz (32 or 44 mA) tests (PI = TD50/ED50). The PIs are a measure of the potential therapeutic window of the tested agent.
(§5) All substances were suspended in Tween 80 (1% aqueous solution) and administered i.p. as a single injection at a dose of 10 mL/kg. On each day of experimentation, fresh solutions were prepared. The detailed in vivo procedures are described elsewhere: the maximal electroshock seizure test (MES),[60] the subcutaneous pentylenetetrazole seizure test (scPTZ),[61] the 6 Hz psychomotor seizure model (32 and 44 mA),[62] and the chimney test.[63] The reference ASMs were purchased from commercial suppliers: VPA (Sigma-Aldrich, St. Louis, MO), LCS, and LEV (UCB Pharma, Braine l’Alleud, Belgium).

Data set [2] concerns mice. Kind of data set: Maximal electroshock (MES) seizure test. The class given is in vivo. The following applies: for responders at 100 mg/kg / ED50: Mus musculus, ip; for responders at 100 mg/kg: read-out: MES: number of mice protected/number of mice tested (converted); for ED50: mice, pretreatment 0.5 h.
From the text: as §1, §2, §3, §4, §5

The target in a further data set is T1, TRPV1 (VR1) (h) (Homo sapiens, UniProt Q8NER1).
T1 construct: Eurofins (contract assay)
The data set is described as follows: TRPV1 antagonist effect functional assay. Format: cell-based. As to conditions: human recombinant CHO cells; for inhibition at 10 µM: read-out: % inhibition of control agonist response. On the procedure: For many years, the TRPV1 channel, permeable to calcium and sodium ions, has been recognized as a promising molecular target for novel analgesics.[19] […] Therefore, bearing in mind the involvement of TRPV1 in pain sensation and potentially in seizure induction, in the next step of the in vitro studies, the TRPV1 antagonist activity was determined for all compounds obtained (Table 6).
Binding/functional studies were carried out commercially in Eurofins Laboratories (Poitiers, France) and Eurofins Panlabs Discovery Services Taiwan, Ltd. (New Taipei City, Taiwan) using testing procedures that were reported previously (for details, see Table S2).
Table S2. Radioligand binding and functional assays. […]
TRPV1 (VR1) (h) (antagonist effect) […]
Assays were performed commercially in Eurofins Laboratories ( Poitiers, France) or Eurofins Panlabs Discovery Services
Taiwan, Ltd. (New Taipei City, Taiwan).

In data set [3] the test system is mice. The data set is described as follows: Subcutaneous pentylenetetrazole (scPTZ) seizure test. Format: in vivo. The following applies: 100 mg/kg i.p.; for scPTZ: number of mice protected/number of mice tested: 0.5 h.
From the text: as §2, §4, §5

The mark [4] stands for this setting: four mice, read-out: protection in 6 Hz (32 mA) screening.
[5] abbreviates: read-out: 6 Hz (32 mA): number of mice protected/number of mice tested (converted).

Each structure is given as a SMILES string.

T1 sequence (Q8NER1 whole entry): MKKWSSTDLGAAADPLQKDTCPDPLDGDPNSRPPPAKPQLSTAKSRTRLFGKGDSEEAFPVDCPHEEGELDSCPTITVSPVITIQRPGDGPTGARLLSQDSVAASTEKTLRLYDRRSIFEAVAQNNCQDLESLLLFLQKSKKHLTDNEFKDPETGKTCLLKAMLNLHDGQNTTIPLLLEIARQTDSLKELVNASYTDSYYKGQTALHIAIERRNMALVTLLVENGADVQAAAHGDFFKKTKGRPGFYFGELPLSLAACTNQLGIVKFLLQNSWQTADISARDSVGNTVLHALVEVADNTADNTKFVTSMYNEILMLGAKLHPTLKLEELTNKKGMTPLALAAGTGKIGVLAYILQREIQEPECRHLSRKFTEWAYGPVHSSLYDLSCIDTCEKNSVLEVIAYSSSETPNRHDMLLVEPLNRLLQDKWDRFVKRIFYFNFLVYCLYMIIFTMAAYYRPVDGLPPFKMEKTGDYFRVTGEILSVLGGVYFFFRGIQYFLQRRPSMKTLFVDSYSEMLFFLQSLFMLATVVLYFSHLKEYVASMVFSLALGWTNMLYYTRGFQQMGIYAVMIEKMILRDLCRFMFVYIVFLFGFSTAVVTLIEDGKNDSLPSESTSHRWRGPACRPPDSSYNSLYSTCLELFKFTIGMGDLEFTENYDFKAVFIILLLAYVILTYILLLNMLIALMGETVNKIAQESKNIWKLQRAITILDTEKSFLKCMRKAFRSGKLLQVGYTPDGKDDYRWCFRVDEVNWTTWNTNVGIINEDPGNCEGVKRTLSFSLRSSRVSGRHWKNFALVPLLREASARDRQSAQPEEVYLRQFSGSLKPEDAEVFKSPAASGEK

`CC(=O)NC(C)C(=O)N1CCN(c2cc(Cl)cc(Cl)c2)CC1` (centres unmarked) [Compound 25, N-(1-(4-(3,5-Dichlorophenyl)piperazin-1-yl)-1-oxopropan-2-yl)acetamide] returned a melting point of 164.6 to 165.4 °C. Moreover, the responders at 100 mg/kg with mice [1] (setting [4]) turned out to be 75%. The responders at 100 mg/kg with mice [1] (setting [5]) was 75%. The ED50 in the data set on mice [1] stood at 56.1 mg/kg. Further, the “antiseizure protection in MES screening” value in the data set with mice [2] (100 mg/kg i.p., 0.5 h, four mice) was determined as 75%. In addition, the responders at 100 mg/kg in the data set with mice [2] (100 mg/kg i.p., 0.5 h) is 75%. The ED50 in the data set with mice [2] stood at 52.9 mg/kg. For the same compound, the inhibition at 10 µM on TRPV1 (VR1) (h) is 8.1%. Further, in the data set with mice [3], the “protection in scPTZ screening” value was found to be 50% and the “scPTZ: number of mice protected/number of mice tested” value was 2/4.

`CC(=O)NC(C)C(=O)N1CCN(c2cccc(Oc3ccccc3)c2)CC1` (centres unmarked) [Compound 29, N-(1-oxo-1-(4-(3-Phenoxyphenyl)piperazin-1-yl)propan-2-yl)acetamide]: the melting point was in the range of 133.6 to 134.3 °C. The responders at 100 mg/kg in the data set with mice [1] (setting [4]) was 75%. Besides, the responders at 100 mg/kg with mice [1] (setting [5]) was 75%. Moreover, the ED50 with mice [1] was 41.2 mg/kg. Besides, the responders at 100 mg/kg with mice [2] (100 mg/kg i.p., 0.5 h) is 100%. In addition, the ED50 with mice [2] came out at 39.9 mg/kg. Moreover, on TRPV1 (VR1) (h), the inhibition at 10 µM is 104% and the Kb was 4.2 µM. For the same compound, in the data set with mice [3], the “protection in scPTZ screening” value is reported as “no activity” and the “scPTZ: number of mice protected/number of mice tested” value was 0/4.

With `CC(=O)NC(C)C(=O)N1CCN(c2cccc(SC(F)(F)F)c2)CC1` (centres unmarked) [Compound 30, N-(1-oxo-1-(4-(3-((Trifluoromethyl)thio)phenyl)piperazin-1-yl)propan-2-yl)acetamide], the melting point fell in the range of 110.9 to 111.7 °C. Also, the responders at 100 mg/kg with mice [1] (setting [4]) is 100%. For the same compound, the responders at 100 mg/kg in the data set with mice [1] (setting [5]) was 100%. In addition, in the data set on mice [1], the ED50 amounted to 39.1 mg/kg. Besides, in the data set with mice [2] (100 mg/kg i.p., 0.5 h), the responders at 100 mg/kg was 100%. For the same compound, the ED50 in the data set on mice [2] worked out at 45.3 mg/kg. The inhibition at 10 µM on TRPV1 (VR1) (h) is 12%. Moreover, in the data set on mice [3], the “protection in scPTZ screening” value was found to be 50% and the “scPTZ: number of mice protected/number of mice tested” value is recorded as 2/4.

For orientation: ED50 means the midpoint of the dose-response relation. For orientation: melting point means the temperature, or range, at which the solid turns liquid. One may read the inhibition as the relative decrease from the control value, in per cent. Broadly, the Kb is the equilibrium dissociation constant of an antagonist, usually derived from a functional assay.
